Reference: patent publication US12616711B2, “Therapeutic dendrimer” (Starpharma Pty Ltd, priority 2019, dated 2026)

Tests used:
[1] = system: CAPAN-1 tumour xenografts; test: CAPAN-1 mouse xenograft pancreatic cancer model, efficacy vs gemcitabine (Example 11); format: in vivo; details: for survival compared to Gemcitabine (Kaplan-Meier): P<0.0001 Mantel Cox, Gemcitabine 120 mg/kg; for Tumour Growth inhibition (%) v vehicle: day 29, Gemcitabine 120, 1 at 2, 4 at 5, 2 at 5, 5 at 3 mg/kg; for Tumour Growth inhibition (%) v vehicle / effect on CAPAN-1 tumours over the dosing study (FIG. 4): i.v. twice weekly for 3 weeks; for effect on CAPAN-1 tumours over the dosing study (FIG. 4): 4 at 5, 2 at 5, 5 at 3 mg/kg
Experimental: A CAPAN-1 (human pancreatic adenocarcinoma cell line) mouse xenograft pancreatic cancer model study was carried out to assess the anti-tumour efficacy properties of example dendrimers compared to gemcitabine.
Compounds 1, 4, 2 and 5 were prepared by dissolving in sterile saline solution immediately prior to dosing and. Gemcitabine ((DBL™ Gemcitabine injection, Hospira Pty Ltd.) was further diluted in saline solution prior to dosing.
Female NOD-SCID Interleukin-2 receptor gamma chain null mice (aged 9 weeks) were inoculated subcutaneously on the flank with 5×10^6 CAPAN-1 cells in PBS:Matrigel (1:1). Mice were weighed and tumours measured twice weekly using electronic callipers. Tumour volume (mm^3) was calculated as length (mm)/2×width (mm)^2. On day seventeen after implantation, mice with similar sized tumours (mean tumour volume 100 mm^3) were randomised into 6 groups of 10 animals.
Compounds were administered via tail vein i.v. injection, twice weekly at […] for 3 weeks. Groups were dosed as follows: • 1. Saline—vehicle • 2. Gemcitabine (120 mg/kg, i.v.) • 3. 1 (2 mg/kg, i.v.) • 4. 4 (5 mg/kg, i.v.) • 5. 2 (5 mg/kg, i.v.) • 6. 5 (3 mg/kg, i.v.)
Tumour growth inhibition was analysed at day 29 (where all vehicle animals remained in the study) using one-way ANOVA followed by Dunnett's multiple comparison test. Tumour growth curves of gemcitabine and DEP-gemcitabine were compared over 47 days (when all treatment group animals remained in the study for tumour-related endpoints) using a mixed-effects model followed by Tukey's multiple comparison test. […] All statistical analysis was performed using GraphPad Prism 8.1.

[2] = system: MDA-MB-231 cells; test: alamarBlue viability assay, GI50; format: cell-based; details: 72 h, given in μM Gemcitabine
Experimental: (§1) A study was carried out to determine the ability of example dendrimers to inhibit growth of cancer cell lines using an alamarBlue viability assay (Thermo Fisher, DAL1025).
(§2) The cytotoxicity of compounds toward MDA-MB-231, A549, H460, BxPC3 and CAPAN-1 cells were evaluated for viability. Cells were seeded at a density of 1.2-5×10^3 cells, dependent on cell growth rate, in 96 well plates and incubated overnight. Cells were then treated with serial dilutions of test compositions for 72 h (MDA-MB-231, A549 and H460 lines) or 144 h (BxPC3 and CAPAN-1 lines). For cell viability analysis, 10% media volume of alamar Blue was added during the final 6-8 h of incubation. Reduction of alamarBlue in living cells yields a red fluorescent metabolite that can be read on a plate reader (560 nm excitation/610 nm emission.). Cell viability and subsequent GI50 values were was determined from the blank corrected dose-response curves, with 4-parameter nonlinear curve fit, in GraphPad Prism.

[3] = system: H460 cells; test: alamarBlue viability assay, GI50; format: cell-based; details: given in μM Gemcitabine
Experimental: as §1, §2

[4] = system: BxPC3 cells; test: alamarBlue viability assay, GI50; format: cell-based; details: BxPC-3, 144 h, given in μM Gemcitabine
Experimental: as §1, §2

[5] = system: A549 cells; test: alamarBlue viability assay, GI50; format: cell-based, human; details: 72 h, given in μM Gemcitabine
Experimental: as §1, §2

[6] = system: CAPAN-1 cells; test: alamarBlue viability assay, GI50; format: cell-based, human; details: 144 h, given in μM Gemcitabine
Experimental: as §1, §2

[7] = system: CAPAN-1 tumour xenografts; test: CAPAN-1 mouse xenograft, alone or with Abraxane or DEP-DTX (Examples 13a, 13b); format: in vivo; details: day 29; i.v.; Gemcitabine 120, Abraxane 40, 3 at 6.5, 6 at 5 (day 1) then 4, DEP-DTX 24 (10 in combination) mg/kg
Experimental: Mice were inoculated and tumours sized as described above. On day nineteen after implantation, mice with similar sized tumours (mean tumour volume 100 mm^3) were randomised into 7 groups of 10 animals. […] Abraxane® was dissolved in saline solution immediately prior to dosing.
Abraxane®, gemcitabine and dendrimers were administered at days 1, 10, and 17 via tail vein i.v. injection, at 0.1 ml/10 g body weight.
In an extension of Example 13a, two additional groups of mice were prepared and dosed to assess the anti-tumour efficacy properties of a taxane-dendrimer combined with a nucleoside analogue-dendrimer (e.g. 6). Mice were inoculated and tumours sized as described above.
Dendrimers were administered weekly via tail vein i.v. injection, at 0.1 ml/10 g body weight for 3 weeks.
All statistical analyses were performed using GraphPad Prism 8.1.

[8] = system: CAPAN-1 tumour xenografts; test: CAPAN-1 mouse xenograft, dosing regimen study (Example 12); format: in vivo; details: 5 mg/kg i.v. weekly for 3 weeks compared to 2 mg/kg i.v. biweekly for 3 weeks
Experimental: A CAPAN-1 (human pancreatic adenocarcinoma cell line) mouse xenograft pancreatic cancer model was established to assess the effects of weekly compared to biweekly administration of an example dendrimer.
Compound 1 was prepared as described above. Mice were inoculated and tumours sized as described above. On day seventeen after implantation, mice with similar sized tumours (mean tumour volume 140 mm^3) were randomised into 2 groups of 5 animals: • 1. 1 (5 mg/kg, i.v.) weekly for 3 weeks; and • 2. 1 (2 mg/kg, i.v.) biweekly for 3 weeks.

[9] = Plasma release study; format: in vitro ADME; details: 37° C.
Experimental: The plasma was placed in a CO2 incubator at 3% CO2 at 42% relative humidity to reach a pH of 7.4.
Gemcitabine HCl (28.5 mg) was dissolved in Milli Q water and the resulting stock solution transferred to a 5 mL volumetric flask and diluted to provide working standard solutions.
The plasma release study was conducted by adding 1 mL of plasma (centrifuged and filtered) to 0.2 mL of dendrimer solution (approximately 2 mg/mL gemcitabine equivalent in miliQ water) for example dendrimers and a comparator. The mixtures were vortexed (30 sec) then incubated at 37° C. 5% CO2. At various timepoints aliquots (0.1 mL) were removed and added to ACN (0.2 mL). The resulting mixtures were vortexed (30 s), centrifuged (10 min, 4° C.), filtered and analysed by HPLC (C8 Xbridge, 3×100 mm, […], 0.4 mL/min., gradient: 5% ACN/H2O) (0-1 min), 5-80% ACN (1-7 min), 80% ACN (7-12 min), 80-5% ACN (12-13 min), 5% ACN (13-15 min), 100 mM ammonium formate buffer, column temperature 50° C., sample tray 4° C., 260 nm.

Row | Molecule | survival compared to Gemcitabine (Kaplan-Meier) [1] | Tumour Growth inhibition (%) v vehicle [1] [%] | effect on CAPAN-1 tumours over the dosing study (FIG. 4) [1] | GI50 [2] [µM] | GI50 ([3]; 72 h) [µM] | GI50 [4] [µM] | GI50 [5] [µM] | GI50 [6] [µM] | Tumour Growth inhibition (%) v vehicle at day 29 [7] [%] | further results
1 | [BHA Lys][Lys]30[Lys]32 [Compound 4, [BHA Lys][Lys]30[Lys]32 [(α-NH-DGA-Gemcitabine)32 (ε-NHPEG˜570)32]] | significantly extended survival beyond that of Gemcitabine | 91 | complete stasis | 0.003 | 0.061 | 0.013 | 0.031 | 0.011 | – | –
2 | [BHA Lys][Lys]30[Lys]32 [Compound 2, [BHA Lys][Lys]30[Lys]32 [(α-NH-TDA-Gemcitabine)32 (ε-NHPEG570)32]] | significantly extended survival beyond that of Gemcitabine | 94 | complete stasis | 0.004 | 0.412 | – | 0.034 | 0.021 | – | –
3 | BHALys[Lys]32[α-TDA-DTX]32[ε-PolyPEG2000]32 [DEP-DTX, reference compound] | – | – | – | – | – | – | – | – | 108 | –
4 | [BHA Lys][Lys]30[Lys]32 [Compound 1, [BHA Lys][Lys]30[Lys]32 [(α-NH-TDA-Gemcitabine)32 (ε-NHPEG˜1100)32]] | – | 75 | – | – | 0.215 | 0.007 | 0.051 | 0.033 | – | suppression of tumour growth, weekly vs biweekly regimen (FIG. 5) [8]: more effective at suppressing tumour growth than 1, given biweekly at 2 mg/kg
5 | Nc1ccn([C@@H]2O[C@H](CO)[C@@H](O)C2(F)F)c(=O)n1 [Gemcitabine, gemcitabine, reference compound] | – | 84 | – | – | – | – | – | – | 59 | GI50 ([2]; Homo sapiens): 0.004 µM; GI50 ([3]; Homo sapiens, NCI-H460, 72 h): 0.042 µM; GI50 ([4]; Homo sapiens): 0.009 µM; GI50 ([5]; Homo sapiens): 0.011 µM; GI50 ([6]; Homo sapiens): 0.009 µM
6 | [BHA Lys][Lys]30[Lys]32 [Compound 8, [BHA Lys][Lys]30[Lys]32 [(α-NH-Glu-Gemcitabine)32 (ε-NHPEG˜2100)32]] | – | – | – | 0.103 | – | – | 0.5 | – | – | Human Plasma % release ([9]; 0 h): −0.17%; Human Plasma % release ([9]; 2 h): 0.22%; Human Plasma % release ([9]; 4 h): −1.99%; Human Plasma % release ([9]; 6 h): 3.02%; Human Plasma % release ([9]; 24 h): 6.19%; Human Plasma % release ([9]; 30 h): 5.39%
7 | [BHA Lys][Lys]30[Lys]32 [Compound 6, [BHA Lys][Lys]30[Lys]32 [(α-NH-DGA-Gemcitabine)32 (ε-NHPEG˜2100)32]] | – | – | – | 0.005 | 0.056 | 0.001 | 0.045 | 0.006 | 83 | Human Plasma % release ([9]; 0 h): 0.49%; Human Plasma % release ([9]; 2 h): 9.94%; Human Plasma % release ([9]; 4 h): 18.18%; Human Plasma % release ([9]; 6 h): 39.84%; Human Plasma % release ([9]; 24 h): 71.13%; Human Plasma % release ([9]; 30 h): 77.98%
8 | [BHA Lys][Lys]30[Lys]32 [Compound 5, [BHA Lys][Lys]30[Lys]32 [(α-NH-DGA-Gemcitabine)32 (ε-NHPEG˜1100)32]] | significantly extended survival beyond that of Gemcitabine | 94 | complete stasis | 0.003 | 0.046 | – | 0.044 | 0.003 | – | –
